{"source": "paper PMC6853232", "about": "“Discovery and evaluation of novel synthetic 5-alkyl-4-oxo-4,5-dihydro-[1,2,4]triazolo[4,3-a]quinoxaline-1-carbox-amide derivatives as anti-inflammatory agents” (Journal of Enzyme Inhibition and Medicinal Chemistry, 2019)", "key": {"[1]": {"test_system": "phosphorylation of JNK in RAW 264.7 cells", "assay": "Western blot, LPS-induced phosphorylation of JNK", "type": "cell-based, mouse", "experimental": "(§1) RAW 264.7 cells (5 × 10^5 cells/well) plated onto 6-well plates were incubated for 24 h and treated with 7.5, 15.0 or 30.0 µM of compound 6p for 30 min and then stimulated with […] of LPS for 24 h. The cells were collected and washed three times with ice-cold PBS. The cells were treated with a cell lysis buffer [50 mM Tris (pH 7.6), 150 mM NaCl, 5 mM EDTA (pH 8.0), 0.6% NP-40, 1 mM Na3VO4, 20 mM β-glycerophosphate, 1 mM phenylmethylsulfonyl fluoride, 2 mM p-nitrophenyl phosphate, and 1:25 Complete Mini Protease Inhibitor cocktail (Boehringer, Mannheim,Germany)] and kept on ice for 30 min. The cell lysates were centrifuged (12,000 g at 4 °C) for 5 min to obtain a cytosolic fraction. The protein concentration was determined by BCA protein assay kit (Beyotime, Haimen, China). Aliquots of the lysates were separated on 10% sodium dodecyl sulphate (SDS)-polyacrylamide gel electrophoresis (PAGE) and then electro blotted onto a polyvinylidene difluoride (PVDF) membrane. The blots were blocked with 5% (w/v) non-fat dry milk for 2 h at 37 °C, followed by incubation with specific primary antibody at 4 °C overnight. […] Blots were again washed with TTBS and the immune active proteins were detected using ECL plus (Thermo, USA). […] Results are expressed as the relative ratio of the specific band compared with the internal reference."}, "[2]": {"test_system": "phosphorylation of ERK in RAW 264.7 cells", "assay": "Western blot, LPS-induced phosphorylation of ERK", "type": "cell-based, mouse", "experimental": "as §1"}, "[3]": {"test_system": "TNF-α production in LPS-stimulated RAW264.7 cells", "assay": "Cytokine production assay (ELISA), TNF-α", "type": "cell-based, mouse", "experimental": "(§2) RAW264.7 cells were seeded at 3 × 10^5 cells/well in a 48-well microplate and incubated overnight.The cells were pre-treated with the different concentrations of the test compunds (3, 7.5, 10 or 30 µM) for 30 min before the stimulation with LPS (1 µg/mL). According to the protocol of the manufacturer, supernatants were harvested at the 24th hour for the assay of TNF-α or IL-6 with ELISA kits (BD Biosciences, San Diego, CA, USA). Briefly, 100 µL of biotinylated antibody reagent and the culture supernatants were added to anti-mouse TNF-α or IL-6 precoated 96-well plates, and the plates were incubated for 2 h at RT. The plate was washed with a washing buffer and subsequently incubated with 100 µL of the streptavidin-HRP solution for 1 h at RT. The plate was washed, and incubated with 100 µL of TMB substrate solution for 30 min at RT in the dark. The reaction was stopped by adding 50 µL of stop solution, and then the absorbance was measured at 450 nm by a plate reader. A standard curve was produced for each assay plate using serially diluted recombinant IL-6."}, "[4]": {"test_system": "gastric mucosa (stomach lesions)", "assay": "Ulcerogenic effect", "type": "in vivo", "conditions": "25 mg/kg p.o. once a day for three days, rats", "experimental": "The lead compound D1 and the newly synthesised compound 6p were subjected to in vivo testing to measure their ulcerogenic effect in comparison to celecoxib and ibuprofen. Male albino rats (220–250 g) divided into 5 groups (control, D1, 6p, ibuprofen and celecoxib group) of five rats each. The groups with D1, 6p, ibuprofen, and celecoxib were administered oral administration (p.o.) 25 mg/kg in a vehicle of 0.5% methylcellulose, respectively. The negative control group was treated with the same vehicle (0.5% methylcellulose). All groups were orally administered once a day for three consecutive days. Animals were sacrificed by diethyl ether 6 h after the last dose and the stomach was removed. An opening at the greater curvature was made and the stomach was cleaned by washing with cold saline and inspected with a three-time magnifying lens for any evidence of hyperaemia, haemorrhage, definite haemorrhagic erosion, or ulcer. An arbitrary scale was used to calculate the ulcer index which indicates the severity of the stomach lesions The % ulceration for each group was calculated as follows: % Ulceration = Number of animals bearing ulcer in a group/Total number of animals in the same group ×100."}, "[5]": {"test_system": "iNOS protein expression in LPS-induced RAW 264.7 cells", "assay": "Western blot, iNOS protein expression", "type": "cell-based, mouse", "experimental": "(§3) The cells were collected and washed three times with ice-cold PBS. The cells were treated with a cell lysis buffer [50 mM Tris (pH 7.6), 150 mM NaCl, 5 mM EDTA (pH 8.0), 0.6% NP-40, 1 mM Na3VO4, 20 mM β-glycerophosphate, 1 mM phenylmethylsulfonyl fluoride, 2 mM p-nitrophenyl phosphate, and 1:25 Complete Mini Protease Inhibitor cocktail (Boehringer, Mannheim,Germany)] and kept on ice for 30 min. The cell lysates were centrifuged (12,000 g at 4 °C) for 5 min to obtain a cytosolic fraction. The protein concentration was determined by BCA protein assay kit (Beyotime, Haimen, China). Aliquots of the lysates were separated on 10% sodium dodecyl sulphate (SDS)-polyacrylamide gel electrophoresis (PAGE) and then electro blotted onto a polyvinylidene difluoride (PVDF) membrane. The blots were blocked with 5% (w/v) non-fat dry milk for 2 h at 37 °C, followed by incubation with specific primary antibody at 4 °C overnight. Blots were washed with Tween 20/Tris-buffered saline [TTBS, 20 mM Tris–HCl buffer, pH 7.6, containing 137 mM NaCl and 0.05% (vol/vol) Tween 20] and incubated with a peroxidase-conjugated secondary antibody for 1 h. Blots were again washed with TTBS and the immune active proteins were detected using ECL plus (Thermo, USA). […] Results are expressed as the relative ratio of the specific band compared with the internal reference."}, "[6]": {"test_system": "COX-2 protein expression in LPS-induced RAW 264.7 cells", "assay": "Western blot, COX-2 protein expression", "type": "cell-based, mouse", "conditions": "15 µM, LPS 1 µg/mL, p < .001", "experimental": "as §3"}, "[7]": {"test_system": "IL-6 production in LPS-stimulated RAW264.7 cells", "assay": "Cytokine production assay (ELISA), IL-6", "type": "cell-based, mouse", "experimental": "as §2"}, "[8]": {"conditions": "LPS 1 µg/mL, 24 h, different concentrations"}}}
{"smiles": "COc1cc(Cn2c(=O)c3nnc(C(N)=O)n3c3ccccc32)cc(OC)c1OC", "note": "[6p, 5-(3,4,5-trimethoxybenzyl)-4-oxo-4,5-dihydro-[1,2, 4]triazolo[4,3-a]quinoxaline-1-carboxamide]", "values": [{"measurement": "phosphorylation of JNK", "setting": "[1]; 30 µM, p < .001", "result": "markedly diminished"}, {"measurement": "LPS-induced phosphorylation of JNK, concentration dependence", "setting": "[1]; 7.5, 15 and 30 µM", "result": "concentration-dependent manner"}, {"measurement": "phosphorylation of ERK", "setting": "[2]; 30 µM, p < .001", "result": "markedly diminished"}, {"measurement": "LPS-induced phosphorylation of ERK, concentration dependence", "setting": "[2]; 7.5, 15 and 30 µM", "result": "concentration-dependent manner"}, {"measurement": "production of TNF-α", "setting": "[3]; 3 µM, p < .001", "result": "significantly inhibited"}, {"measurement": "LPS-induced increase in TNF-α levels", "setting": "[3]; [8]", "result": "inhibited in a concentration-dependent manner"}, {"measurement": "% ulceration", "setting": "[4]", "result": 20, "unit": "%"}, {"measurement": "inhibition of iNOS protein expression", "setting": "[5]; 30 µM, LPS 1 µg/mL, p < .001", "result": 39.89, "unit": "%"}, {"measurement": "iNOS protein expression, dose dependence", "setting": "[5]; 7.5, 15 and 30 µM", "result": "dose-dependent manner"}, {"measurement": "inhibition of COX-2 protein expression", "setting": "[6]", "result": 53.44, "unit": "%"}, {"measurement": "production of IL-6", "setting": "[7]; 3 µM, p < .001", "result": "significantly inhibited"}, {"measurement": "LPS-induced increase in IL-6 levels", "setting": "[7]; [8]", "result": "inhibited in a concentration-dependent manner"}, {"measurement": "melting point", "result": "286 to 288", "unit": "°C"}]}
